Source: article PMC10991534, “The redox-sensitive R-loop of the carbon control protein SbtB contributes to the regulation of the cyanobacterial CCM” (Scientific Reports, 2024)

Assays:
Assay in all cases: ITC, one set of sites model
[1] = molecular target: T1, SbtB (Synechocystis sp. PCC 6803, UniProt P73954); details: WT oxidized R-loop; re-calculated here from the group's earlier ITC data (ref 11) with single binding model; cited from earlier work
T1 construct: gene slr1513; R-loop Cys105-Cys110

[2] = molecular target: T2, SbtB-Δ104 (Synechocystis sp. PCC 6803, UniProt P73954); assay type: binding
T2 construct: gene slr1513; C-terminal R-loop truncated, StrepII-tagged, recombinant, trimer

[3] = molecular target: T3, SbtB (Synechocystis sp. PCC 6803, UniProt P73954, C105A/C110A); assay type: binding
T3 construct: gene slr1513; R-loop Cys105-Cys110

[4] = molecular target: T4, SbtB (Synechocystis sp. PCC 6803, UniProt P73954, C105S/C110S); assay type: binding
T4 construct: gene slr1513; R-loop Cys105-Cys110

[5] = molecular target: T5, SbtB (Synechocystis sp. PCC 6803, UniProt P73954, C105S); assay type: binding
T5 construct: gene slr1513; R-loop Cys105-Cys110

[6] = molecular target: T6, SbtB-Δ109 (Synechocystis sp. PCC 6803, UniProt P73954); assay type: binding
T6 construct: gene slr1513; last residue Cys110 deleted, StrepII-tagged, recombinant, trimer

[7] = molecular target: T7, SbtB (Synechocystis sp. PCC 6803, UniProt P73954, C110S); assay type: binding
T7 construct: gene slr1513; R-loop Cys105-Cys110
T7 sequence (P73954 whole entry C110S): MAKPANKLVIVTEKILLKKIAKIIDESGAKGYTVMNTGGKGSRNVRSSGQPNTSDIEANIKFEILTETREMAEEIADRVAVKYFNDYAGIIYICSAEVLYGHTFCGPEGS

T1 sequence (P73954 whole entry): as the sequence (P73954 whole entry C110S) above, with S110C counted along it
T2 sequence (P73954 1-104, stated change not applied): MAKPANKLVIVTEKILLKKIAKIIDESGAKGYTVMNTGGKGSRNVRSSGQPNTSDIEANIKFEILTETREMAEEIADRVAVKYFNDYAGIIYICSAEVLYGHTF
T6 sequence (P73954 1-109, stated change not applied): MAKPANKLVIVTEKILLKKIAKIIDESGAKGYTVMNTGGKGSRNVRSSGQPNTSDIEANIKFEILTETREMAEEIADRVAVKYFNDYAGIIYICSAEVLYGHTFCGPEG
T5 sequence (P73954 whole entry C105S): as the sequence (P73954 whole entry C110S) above, with C105S, S110C counted along it
T4 sequence (P73954 whole entry C105S/C110S): as the sequence (P73954 whole entry C110S) above, with C105S counted along it
T3 sequence (P73954 whole entry C105A/C110A): as the sequence (P73954 whole entry C110S) above, with C105A, S110A counted along it

Row | Kd [2] [µM] | Kd [3] [µM] | Kd [4] [µM] | Kd [5] [µM] | Kd [6] [µM] | Kd [7] [µM] | SMILES | Kd [1] [µM]
1 | 79.2 ± 55.1 |  |  |  |  |  | Nc1ncnc2c1ncn2[C@@H]1O[C@H](COP(=O)(O)OP(=O)(O)O)[C@@H](O)[C@H]1O [ADP] | 55.8 ± 7.7
2 | 78.2 ± 6 |  |  |  |  |  | Nc1ncnc2c1ncn2[C@@H]1O[C@H](COP(=O)(O)O)[C@@H](O)[C@H]1O [AMP] | 87.4 ± 3.7
3 | 35 ± 7.1 | 29.8 ± 14.1 | 47.6 ± 21.3 | 40.5 ± 75.9 | 32.5 ± 17.9 | 60.1 ± 6.7 | Nc1ncnc2c1ncn2[C@@H]1O[C@H](COP(=O)(O)OP(=O)(O)OP(=O)(O)O)[C@@H](O)[C@H]1O [ATP] | 62.5 ± 16.6
